Experimental data: PMC4061029, “A Stable and Reproducible Human Blood-Brain Barrier Model Derived from Hematopoietic Stem Cells” (PLoS ONE, 2014)

Legend:
[1] = test system: CD34+-derived ECs co-cultured with pericytes; assay: Cell viability of ECs under Wnt antagonist; type: cell-based, human; details: co-culture with pericytes, 4 days
[2] = test system: CD34+-derived ECs co-cultured with pericytes; assay: Abrogation of Wnt signaling: paracellular permeability of ECs co-cultured with pericytes; type: cell-based, human; details: co-culture with pericytes, 4 days, 0.1 or 1 µM, luminal side
Method: Prior to the experiments, HEPES-buffered Ringer’s solution (in some cases EBM-2 medium) was added to empty wells of a 12-well plate (Costar). Filter inserts, containing confluent monolayers of CD34^+-ECs, were subsequently placed in the 12-well plate, filled with compound solution containing the fluorescent integrity marker Lucifer Yellow (20 µM; Life Technologies), and then placed on an orbital shaker. After 1 h, filter inserts were withdrawn from the receiver compartment. Aliquots from the donor solution were taken at the beginning and at the end of the experiments and the fluorescence was quantified. At least three inserts with cells and three without cells were tested in each permeability measurement. Fluorescence detection was carried out on a Synergy H1 multiplates reader (Biotek) using the following excitation/emission wavelength (nm) settings: 432/538; 490/516; 542/570 for Lucifer yellow, Fluorescein Na and Cy3-Human Serum Albumin and Human IgG respectively.
For Wnt signaling experiments, mono- and co-culture systems were used. […]
Figure 6 Evaluation of Wnt signaling in the induction of BBB properties in ECs. […] After 4 days of coculture, the paracellular permeability and cell organization were evaluated. (D) Fluorescence microscopy images showing the expression of ZO-1 in untreated ECs or ECs treated with XAV 939 (1 µM) for 4 days. […]

[3] = test system: iPSC-derived ECs with astrocytes; set-up: method as in PMID 24561821; details: cited from earlier work

| SMILES | cell viability [1] | paracellular permeability of the EC monolayer to lucifer yellow [2] | TEER of the BBB model [3] |
| --- | --- | --- | --- |
| Oc1nc(-c2ccc(C(F)(F)F)cc2)nc2c1CSCC2 [XAV-939] | did not affect | increased |  |
| CC1=C(/C=C/C(C)=C/C=C/C(C)=C/C(=O)O)C(C)(C)CCC1 [retinoic acid] |  |  | up to 5000 Ω×cm^2 |
